Values joined by “and” are separate entries in the source; they are usually repeats but may differ in a detail not shown here. Identical values can stand only once.
Tests used:
[1] = Plasma pharmacokinetics of OSI-930; format: in vivo, human; settings: for AUC / Cmax / concentration at 22 day / half-life / Tmax: human, plasma
advanced solid tumors = experiment: Antitumor response; format: in vivo, human
[2] = 19 evaluable patients with GIST

O=C(Nc1ccc(OC(F)(F)F)cc1)c1sccc1NCc1ccnc2ccccc12 [OSI-930]
Rate and extent of absorption, sieved (screened) vs micronized capsules ([1]; 400 mg twice a day cohort, 3 vs 4 patients, data not shown): similar | Dose proportionality of exposure ([1]; 400 and 500 mg twice a day): dose proportional | Dose proportionality of exposure ([1]; between 500 and 600 mg twice a day): greater than dose proportional | AUC ([1]; oral, 50 mg, AUCtau, 50 mg once a day (n = 1), day 22, steady state): 2590 ng·h/mL | Cmax ([1]; oral, 50 mg, Cmax, 50 mg once a day (n = 1), day 22, steady state): 188 ng/mL | concentration at 22 day ([1]; oral, 50 mg, Cmin, 50 mg once a day (n = 1), day 22, steady state): 69.3 ng/mL | half-life ([1]; oral, 50 mg, T1/2, 50 mg once a day (n = 1), day 22, steady state): 12.6 h | Tmax ([1]; oral, 50 mg, Tmax, 50 mg once a day (n = 1), day 22, steady state): 6 h | AUC ([1]; oral, 100 mg, AUCtau, 100 mg once a day (n = 1), day 22, steady state): 2490 ng·h/mL | Cmax ([1]; oral, 100 mg, Cmax, 100 mg once a day (n = 1), day 22, steady state): 228 ng/mL | concentration at 22 day ([1]; oral, 100 mg, Cmin, 100 mg once a day (n = 1), day 22, steady state): 61.5 ng/mL | half-life ([1]; oral, 100 mg, T1/2, 100 mg once a day (n = 1), day 22, steady state): 18.5 h | Tmax ([1]; oral, 100 mg, Tmax, 100 mg once a day (n = 1), day 22, steady state): 4 h | AUC ([1]; oral, 200 mg, AUCtau, 200 mg once a day (n = 1), day 22, steady state): 4730 ng·h/mL | Cmax ([1]; oral, 200 mg, Cmax, 200 mg once a day (n = 1), day 22, steady state): 463 ng/mL | concentration at 22 day ([1]; oral, 200 mg, Cmin, 200 mg once a day (n = 1), day 22, steady state): 77.9 ng/mL | half-life ([1]; oral, 200 mg, T1/2, 200 mg once a day (n = 1), day 22, steady state): 7.95 h | Tmax ([1]; oral, 200 mg, Tmax, 200 mg once a day (n = 1), day 22, steady state): 6 h | AUC ([1]; oral, 400 mg, AUCtau, 400 mg once a day (n = 2), day 22, steady state): 10700 ng·h/mL | AUC ([1]; oral, 400 mg, AUCtau, 400 mg twice a day (n = 6), day 22, steady state): 7880 ng·h/mL | Cmax ([1]; oral, 400 mg, Cmax, 400 mg once a day (n = 2), day 22, steady state): 873 ng/mL | Cmax ([1]; oral, 400 mg, Cmax, 400 mg twice a day (n = 6), day 22, steady state): 802 ng/mL | concentration at 22 day ([1]; oral, 400 mg, Cmin, 400 mg once a day (n = 2), day 22, steady state): 306 ng/mL | concentration at 22 day ([1]; oral, 400 mg, Cmin, 400 mg twice a day (n = 6), day 22, steady state): 423 ng/mL | half-life ([1]; oral, 400 mg, T1/2, 400 mg once a day (n = 2), day 22, steady state): 13.8 h | half-life ([1]; oral, 400 mg, T1/2, 400 mg twice a day (n = 6), day 22, steady state): 4.07 h | Tmax ([1]; oral, 400 mg, Tmax, 400 mg once a day (n = 2), day 22, steady state): 4 h | Tmax ([1]; oral, 400 mg, Tmax, 400 mg twice a day (n = 6), day 22, steady state): 6.1 h | AUC ([1]; oral, 500 mg, AUCtau, 500 mg twice a day (n = 21), day 22, steady state): 5760 ng·h/mL | Cmax ([1]; oral, 500 mg, Cmax, 500 mg twice a day (n = 21), day 22, steady state): 1010 ng/mL | concentration at 22 day ([1]; oral, 500 mg, Cmin, 500 mg twice a day (n = 21), day 22, steady state): 547 ng/mL | half-life ([1]; oral, 500 mg, T1/2, 500 mg twice a day (n = 21), day 22, steady state): 7.11 h | Tmax ([1]; oral, 500 mg, Tmax, 500 mg twice a day (n = 21), day 22, steady state): 3.6 h | AUC ([1]; oral, 600 mg, AUCtau, 600 mg twice a day (n = 6), day 22, steady state): 11900 ng·h/mL | Cmax ([1]; oral, 600 mg, Cmax, 600 mg twice a day (n = 6), day 22, steady state): 2030 ng/mL | concentration at 22 day ([1]; oral, 600 mg, Cmin, 600 mg twice a day (n = 6), day 22, steady state): 1170 ng/mL | half-life ([1]; oral, 600 mg, T1/2, 600 mg twice a day (n = 6), day 22, steady state): 5.39 h | Tmax ([1]; oral, 600 mg, Tmax, 600 mg twice a day (n = 6), day 22, steady state): 3.5 h | AUC ([1]; oral, 800 mg, AUCtau, 800 mg once a day (n = 2), day 22, steady state): 11300 ng·h/mL | Cmax ([1]; oral, 800 mg, Cmax, 800 mg once a day (n = 2), day 22, steady state): 984 ng/mL | concentration at 22 day ([1]; oral, 800 mg, Cmin, 800 mg once a day (n = 2), day 22, steady state): 304 ng/mL | half-life ([1]; oral, 800 mg, T1/2, 800 mg once a day (n = 2), day 22, steady state): 18.1 h | Tmax ([1]; oral, 800 mg, Tmax, 800 mg once a day (n = 2), day 22, steady state): 4.1 h | AUC ([1]; oral, 1200 mg, AUCtau, 1,200 mg once a day (n = 1), day 22, steady state): 19600 ng·h/mL | Cmax ([1]; oral, 1200 mg, Cmax, 1,200 mg once a day (n = 1), day 22, steady state): 1990 ng/mL | concentration at 22 day ([1]; oral, 1200 mg, Cmin, 1,200 mg once a day (n = 1), day 22, steady state): 493 ng/mL | half-life ([1]; oral, 1200 mg, T1/2, 1,200 mg once a day (n = 1), day 22, steady state): 20.2 h | Tmax ([1]; oral, 1200 mg, Tmax, 1,200 mg once a day (n = 1), day 22, steady state): 4 h | AUC ([1]; oral, 1600 mg, AUCtau, 1,600 mg once a day (n = 3), day 22, steady state): 13000 ng·h/mL | Cmax ([1]; oral, 1600 mg, Cmax, 1,600 mg once a day (n = 3), day 22, steady state): 1070 ng/mL | concentration at 22 day ([1]; oral, 1600 mg, Cmin, 1,600 mg once a day (n = 3), day 22, steady state): 249 ng/mL | half-life ([1]; oral, 1600 mg, T1/2, 1,600 mg once a day (n = 3), day 22, steady state): 12.6 h | Tmax ([1]; oral, 1600 mg, Tmax, 1,600 mg once a day (n = 3), day 22, steady state): 6 h | half-life ([1]; oral, Terminal half-life, twice a day cohort): 2.3 to 7.1 h | Tmax ([1]; po, Time to peak plasma concentrations, once a day and twice a day cohorts): 2 to 10 h | Linearity of Cmax and AUC ([1]; once a day cohorts): linearity in Cmax and AUC in the dose range 50 to 1,200 mg, but not at 1,600 mg | Accumulation in plasma at steady state ([1]; twice a day oral administration): ~2 fold | Steady state plasma concentrations achieved ([1]; twice a day oral administration, predose concentrations days 8, 15, 22): ≤ 8 days | Duration of disease stabilization (advanced solid tumors; 1 patient, anthracycline-resistant low-grade sarcoma, once a day): 139 weeks | Duration of RECIST stabilization of disease (advanced solid tumors; 1 patient, low-grade sarcoma, escalated from 100 to 1,200 mg once a day): 33 months | Patients with stable disease as best response (advanced solid tumors; [2]): 57.9% and 58% | RECIST PRs (advanced solid tumors; [2]): no RECIST PRs | RECIST partial or complete responses (advanced solid tumors; once a day cohorts): No RECIST partial or complete responses
